As a reminder, the IC50 is the concentration that inhibits the measured activity by half. The term efflux ratio denotes the permeability from basolateral to apical divided by that in the opposite direction, in the common usage.

The values below come from ChEMBL document CHEMBL1155328, “A conformational constraint improves a beta-secretase inhibitor but for an unexpected reason” (Bioorg Med Chem Lett, 2009).

Molecules are shown by their SMILES.

In one data set the target is Beta-secretase 1 (Homo sapiens, UniProt P56817). Nature of the data set: Inhibition of BACE-1.
The subject of the next data set is P-gp. Nature of the data set: (§1) Apparent permeability in human Caco-2 cells assessed as Pgp efflux ratio from basolateral to apical side to apical to basolateral side. The format is ADME, cell-based. (Passage across Caco-2 layers is used to estimate intestinal permeability.)
In a further data set the test system is Caco-2. Described as §1. The format is ADME, cell-based.

Chain of Beta-secretase 1 (P56817 whole entry): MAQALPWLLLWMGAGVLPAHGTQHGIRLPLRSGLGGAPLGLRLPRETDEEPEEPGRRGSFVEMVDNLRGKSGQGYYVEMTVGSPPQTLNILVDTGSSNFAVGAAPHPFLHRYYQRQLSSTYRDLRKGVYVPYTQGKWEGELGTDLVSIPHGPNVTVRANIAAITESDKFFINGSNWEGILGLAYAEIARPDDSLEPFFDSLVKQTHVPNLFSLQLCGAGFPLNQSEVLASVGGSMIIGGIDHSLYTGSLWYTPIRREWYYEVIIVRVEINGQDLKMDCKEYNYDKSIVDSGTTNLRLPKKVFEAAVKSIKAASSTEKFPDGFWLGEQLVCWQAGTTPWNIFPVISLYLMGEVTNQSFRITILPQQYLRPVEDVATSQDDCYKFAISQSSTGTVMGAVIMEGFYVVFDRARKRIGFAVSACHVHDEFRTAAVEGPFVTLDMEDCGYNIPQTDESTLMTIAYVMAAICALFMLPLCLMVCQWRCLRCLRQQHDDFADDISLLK

As for `COc1ccc2c(c1)CCC2(Cc1ccc(C(F)(F)F)cc1)c1cn(C)c(N)n1` (stereo not given), the IC50 against Beta-secretase 1 came out at 350 nM.

Compound `COc1ccc2c(c1F)CCC2(Cc1ccc(C(F)(F)F)cc1)c1cn(C)c(N)n1` (stereo not given) yielded a concentration for half-maximal inhibition (IC50) on Beta-secretase 1 of 63 nM. The efflux ratio in the data set on P-gp was 3.6.

`COc1ccc(C(Cc2ccc(C(F)(F)F)cc2)c2cn(C)c(N)n2)cc1` (stereo not given) displayed an IC50 against Beta-secretase 1 of 1800 nM. Also, the Ratio in the data set on Caco-2 was 4.
